# Results from ChEMBL document CHEMBL5356966, “A dual mechanism with H2S inhibition and membrane damage of morusin from Morus alba Linn. against MDR-MRSA” (2024).
# Calls of active or inactive are those of the source. The calls are words filed in the database; no cut-off is given here.
# Assays:
# Enterococcus [1] = test: Antibacterial activity vancomycin-resistant Enterococcus assessed as inhibition of bacterial growth incubated for 24 hrs by CLSI based analysis; type: functional
# Staphylococcus aureus [2] = test: Bactericidal activity against Staphylococcus aureus at 4 times MIC measured after 24 hrs by time kill assay; type: functional, organism-based
# Staphylococcus aureus [3] = test: Bactericidal activity against methicilin-resistant Staphylococcus aureus 003 at 4 times MIC measured after 24 hrs by time kill assay; type: functional, organism-based
# Cell membrane [4] = test: Disruption of bacterial cell membrane in methicilin-resistant Staphylococcus aureus 003 assessed as increase in red fluorescence intensity incubated for 1 hr by DAPI/PI staning based confocal laser microscopic analysis
# Staphylococcus aureus [5] = test: In vivo antibacterial activity against methicilin-resistant Staphylococcus aureus infected in ICR mouse skin infection model assessed as wound area at 5 mg/kg, ip preadministered with compound for 24 hrs followed by bacterial infection and measured after 3 days; type: functional; details: time 96 hrs
# Staphylococcus aureus [6] = test: Antibacterial activity methicillin-resistant Staphylococcus aureus 003 assessed as inhibition of H2S production at 1/4 times MIC; type: functional
# Staphylococcus aureus [7] = test: Antibacterial activity methicillin-resistant Staphylococcus aureus 003 assessed as inhibition of H2S production at 1/4 to 1/8 times MIC; type: functional, organism-based
# Staphylococcus aureus [8] = test: In vivo antibacterial activity against methicilin-resistant Staphylococcus aureus infected in ICR mouse skin infection model assessed as reduction in bacterial burden at 5 mg/kg, ip preadministered with compound for 24 hrs followed by bacterial infection and measured after 3 days; type: functional; set-up: scale not given: the % may be the effect or the level left; details: time 96 hrs
# Staphylococcus aureus [9] = test: In vivo antibacterial activity against methicilin-resistant Staphylococcus aureus infected in ICR mouse skin infection model assessed as reduction in bacterial burden at 20 mg/kg, ip preadministered with compound for 24 hrs followed by bacterial infection and measured after 3 days; type: functional; set-up: scale not given: the % may be the effect or the level left; details: time 96 hrs
# Staphylococcus aureus [10] = test: Antibacterial activity methicillin-resistant Staphylococcus aureus 003 assessed as downregulation of plsY expression by qRT-PCR analysis; type: functional, organism-based
# Staphylococcus aureus [11] = test: In vivo antibacterial activity against methicilin-resistant Staphylococcus aureus infected in ICR mouse skin infection model assessed as reduction in bacterial burden at 10 mg/kg, ip preadministered with compound for 24 hrs followed by bacterial infection and measured after 3 days; type: functional; set-up: scale not given: the % may be the effect or the level left; details: time 96 hrs
# Staphylococcus aureus [12] = test: Antibacterial activity methicillin-resistant Staphylococcus aureus 011 assessed as inhibition of bacterial growth incubated for 24 hrs by CLSI based analysis; type: functional
# Staphylococcus aureus [13] = test: Antibacterial activity methicillin-resistant Staphylococcus aureus 003 assessed as inhibition of bacterial growth incubated for 24 hrs by CLSI based analysis; type: functional
# Staphylococcus aureus [14] = test: Antibacterial activity Staphylococcus aureus assessed as inhibition of bacterial growth incubated for 24 hrs by CLSI based analysis; type: functional
# Escherichia coli = test: Antibacterial activity Escherichia coli assessed as inhibition of bacterial growth incubated for 24 hrs by CLSI based analysis; type: functional
# Acinetobacter baumannii = test: Antibacterial activity Acinetobacter baumannii assessed as inhibition of bacterial growth incubated for 24 hrs by CLSI based analysis; type: functional
# Staphylococcus aureus [15] = test: Bactericidal activity methicillin-resistant Staphylococcus aureus 011 assessed as inhibition of bacterial growth incubated for 24 hrs by CLSI based analysis; type: functional
# Staphylococcus aureus [16] = test: Bactericidal activity methicillin-resistant Staphylococcus aureus 003 assessed as inhibition of bacterial growth incubated for 24 hrs by CLSI based analysis; type: functional
# Staphylococcus aureus [17] = test: Bactericidal activity Staphylococcus aureus assessed as inhibition of bacterial growth incubated for 24 hrs by CLSI based analysis; type: functional
# Enterococcus [18] = test: Bactericidal activity vancomycin-resistant Enterococcus assessed as inhibition of bacterial growth incubated for 24 hrs by CLSI based analysis; type: functional
# Staphylococcus aureus [19] = test: Bactericidal activity against Staphylococcus aureus at 2 to 4 times MIC measured after 24 hrs by time kill assay; type: functional, organism-based
# Staphylococcus aureus [20] = test: Bactericidal activity against Staphylococcus aureus at 2 to 4 times MIC measured after 30 mins by time kill assay; type: functional, organism-based
# Staphylococcus aureus [21] = test: Bactericidal activity against methicilin-resistant Staphylococcus aureus 003 at 2 to 4 times MIC measured after 24 hrs by time kill assay; type: functional, organism-based
# Staphylococcus aureus [22] = test: Bactericidal activity against methicilin-resistant Staphylococcus aureus 003 at 8 times MIC measured after 24 hrs by time kill assay; type: functional, organism-based
# Staphylococcus aureus [23] = test: Induction of resistance development in Staphylococcus aureus incubated for 24 hrs treated over 20 serial passages by broth microdilution analysis; type: functional, organism-based
# Staphylococcus aureus [24] = test: Induction of resistance development in methicilin-resistant Staphylococcus aureus incubated for 24 hrs treated over 20 serial passages by broth microdilution analysis; type: functional, organism-based
# Staphylococcus aureus [25] = test: Induction of resistance development in methicilin-resistant Staphylococcus aureus 003 incubated for 24 hrs treated over 11 serial passages by broth microdilution analysis; type: functional, organism-based
# Staphylococcus aureus [26] = test: Induction of resistance development Staphylococcus aureus incubated for 24 hrs treated over 11 serial passages by broth microdilution analysis; type: functional, organism-based
# Cell membrane [27] = test: Induction of inner membrane permeability in methicillin-resistant Staphylococcus aureus 003 assessed as increase in fluorescence intensity incubated for 30 mins
# Cell membrane [28] = test: Induction of inner membrane permeability in vancomycin-resistant Enterococcus assessed as increase in fluorescence intensity incubated for 30 mins
# Cell membrane [29] = test: Induction of inner membrane permeability in methicillin-resistant Staphylococcus aureus 003 assessed as fold change in MIC in presence of phosphatidylglycerol; type: subcellular
# Cell membrane [30] = test: Induction of inner membrane permeability in methicillin-resistant Staphylococcus aureus 003 assessed as fold change in MIC in presence of phosphatidylethanolamine; type: subcellular
# Cell membrane [31] = test: Induction of inner membrane permeability in methicillin-resistant Staphylococcus aureus 003 assessed as fold change in MIC in presence of cardiolipin; type: subcellular
# Cell membrane [32] = test: Induction of inner membrane permeability in methicillin-resistant Staphylococcus aureus 003 assessed as fold change in MIC in presence of peptidoglycan; type: subcellular
# Cell membrane [33] = test: Induction of inner membrane permeability in Escherichia coli assessed as increase in fluorescence intensity measured for 15 mins in presence of Polymyxin B sulfate
# Cell membrane [34] = test: Disruption of bacterial cell membrane in methicilin-resistant Staphylococcus aureus 003 assessed as as appearance of wrinkled cell incubated for 1 hr by DAPI/PI staning based confocal laser microscopic analysis; type: subcellular
# Cell membrane [35] = test: Disruption of bacterial cell membrane in vancomycin-resistant Enterococcus assessed as as appearance of wrinkled cell incubated for 1 hr by DAPI/PI staning based confocal laser microscopic analysis
# Staphylococcus aureus [36] = test: Antibacterial activity methicillin-resistant Staphylococcus aureus 003 assessed as decrease in membrane fluidity incubated for 50 mins; type: functional, organism-based
# Staphylococcus aureus [37] = test: Antibacterial activity methicillin-resistant Staphylococcus aureus 003 under […] condition at pH 5.5 to 9.5; type: functional, organism-based
# Enterococcus [38] = test: Antibacterial activity vancomycin-resistant Enterococcus under […] condition at pH 5.5 to 9.5; type: functional, organism-based
# Staphylococcus aureus [39] = test: Antibacterial activity methicillin-resistant Staphylococcus aureus 003 assessed as increase in fluorescence intensity at 1 time MIC; type: functional
# Staphylococcus aureus [40] = test: Antibacterial activity methicillin-resistant Staphylococcus aureus 003 assessed as increase in fluorescence intensity at 4 time MIC; type: functional
# Staphylococcus aureus [41] = test: Antibacterial activity methicillin-resistant Staphylococcus aureus 003 assessed as increase in fluorescence intensity by DiSC3(5) dye based analysis; type: functional, organism-based
# Staphylococcus aureus [42] = test: Antibacterial activity methicillin-resistant Staphylococcus aureus 003 assessed as decrease in intracellular pH at 4 time MIC measured up to 74 mins; type: functional, organism-based
# Enterococcus [43] = test: Antibacterial activity vancomycin-resistant Enterococcus assessed as decrease in intracellular pH at 4 time MIC measured up to 74 mins; type: functional, organism-based
# Staphylococcus aureus [44] = test: Antibacterial activity methicillin-resistant Staphylococcus aureus 003 assessed as increase in intracellular ATP level incubated for 30 mins; type: functional, organism-based
# Staphylococcus aureus [45] = test: Antibacterial activity methicillin-resistant Staphylococcus aureus 003 assessed as downregulation of fabD expression by qRT-PCR analysis; type: functional, organism-based
# Staphylococcus aureus [46] = test: Antibacterial activity methicillin-resistant Staphylococcus aureus 003 assessed as downregulation of fabF expression by qRT-PCR analysis; type: functional, organism-based
# Staphylococcus aureus [47] = test: Antibacterial activity methicillin-resistant Staphylococcus aureus 003 assessed as downregulation of fabG expression by qRT-PCR analysis; type: functional, organism-based
# Staphylococcus aureus [48] = test: Antibacterial activity methicillin-resistant Staphylococcus aureus 003 assessed as downregulation of fabH expression by qRT-PCR analysis; type: functional, organism-based
# Staphylococcus aureus [49] = test: Antibacterial activity methicillin-resistant Staphylococcus aureus 003 assessed as downregulation of fabZ expression by qRT-PCR analysis; type: functional, organism-based
# Staphylococcus aureus [50] = test: Antibacterial activity methicillin-resistant Staphylococcus aureus 003 assessed as ROS accumulation at 2 to 8 times MIC incubated for 60 mins; type: functional, organism-based
# Staphylococcus aureus [51] = test: In vivo antibacterial activity against methicilin-resistant Staphylococcus aureus infected in ICR mouse skin infection model assessed as wound area at 10 mg/kg, ip preadministered with compound for 24 hrs followed by bacterial infection and measured after 3 days; type: functional; details: time 96 hrs
# Staphylococcus aureus [52] = test: In vivo antibacterial activity against methicilin-resistant Staphylococcus aureus infected in ICR mouse skin infection model assessed as wound area at 20 mg/kg, ip preadministered with compound for 24 hrs followed by bacterial infection and measured after 3 days; type: functional; details: time 96 hrs
# Staphylococcus aureus [53] = test: In vivo antibacterial activity against methicilin-resistant Staphylococcus aureus infected in ICR mouse skin infection model assessed as wound area at 40 mg/kg, ip preadministered with compound for 24 hrs followed by bacterial infection and measured after 3 days; type: functional; details: time 96 hrs
# Staphylococcus aureus [54] = test: Antibacterial activity methicillin-resistant Staphylococcus aureus 003 assessed as inhibition of H2S production at 50 uM; type: functional
smiles,measurement,setting,value
CN[C@H](CC(C)C)C(=O)N[C@H]1C(=O)N[C@@H](CC(N)=O)C(=O)N[C@H]2C(=O)N[C@H]3C(=O)N[C@H](C(=O)N[C@H](C(=O)O)c4cc(O)cc(O)c4-c4cc3ccc4O)[C@H](O)c3ccc(c(Cl)c3)Oc3cc2cc(c3O[C@@H]2O[C@H](CO)[C@@H](O)[C@H](O)[C@H]2O[C@H]2C[C@](C)(N)[C@H](O)[C@H](C)O2)Oc2ccc(cc2Cl)[C@H]1O [VANCOMYCIN],MIC,Enterococcus [1],64 µg/mL
same,Activity,Staphylococcus aureus [2],inactive
same,Activity,Staphylococcus aureus [3],inactive
same,Activity,Cell membrane [4],Active
same,Activity,Staphylococcus aureus [5],0.16 cm2
CC(C)=CCc1c(-c2ccc(O)cc2O)oc2c3c(cc(O)c2c1=O)OC(C)(C)C=C3 [MORUSIN],inhibition (INH),Staphylococcus aureus [6],12%
same,inhibition,Staphylococcus aureus [7],Active
same,Activity,Staphylococcus aureus [8],50%
same,Activity,Staphylococcus aureus [9],90%
same,Activity,Staphylococcus aureus [10],Active
same,Activity,Staphylococcus aureus [11],80%
same,MIC,Staphylococcus aureus [12],8 µg/mL
same,MIC,Staphylococcus aureus [13],4 µg/mL
same,MIC,Staphylococcus aureus [14],4 µg/mL
same,MIC,Enterococcus [1],8 µg/mL
same,MIC,Escherichia coli,> 512 µg/mL
same,MIC,Acinetobacter baumannii,> 512 µg/mL
same,MBC,Staphylococcus aureus [15],16 µg/mL
same,MBC,Staphylococcus aureus [16],16 µg/mL
same,MBC,Staphylococcus aureus [17],8 µg/mL
same,MBC,Enterococcus [18],16 µg/mL
same,Activity,Staphylococcus aureus [19],Active
same,Activity,Staphylococcus aureus [20],Active
same,Activity,Staphylococcus aureus [21],Active
same,Activity,Staphylococcus aureus [22],Active
same,Activity,Staphylococcus aureus [23],inactive
same,Activity,Staphylococcus aureus [24],inactive
same,Activity,Staphylococcus aureus [25],Active
same,Activity,Staphylococcus aureus [26],Active
same,Activity,Cell membrane [27],Dose-Dependent Effect
same,Activity,Cell membrane [28],Dose-Dependent Effect
same,fold change (FC),Cell membrane [29],8
same,fold change (FC),Cell membrane [30],32
same,fold change (FC),Cell membrane [31],8
same,Activity,Cell membrane [32],inactive
same,Flu intensity,Cell membrane [33],0.9
same,Activity,Cell membrane [34],Active
same,Activity,Cell membrane [35],Active
same,Activity,Staphylococcus aureus [36],Dose-Dependent Effect
same,Activity,Staphylococcus aureus [37],Active
same,Activity,Enterococcus [38],Active
same,Flu intensity,Staphylococcus aureus [39],334
same,Flu intensity,Staphylococcus aureus [40],354
same,Activity,Staphylococcus aureus [41],Dose-Dependent Effect
same,Activity,Staphylococcus aureus [42],Active
same,Activity,Enterococcus [43],Active
same,Activity,Staphylococcus aureus [44],Dose-Dependent Effect
same,Activity,Staphylococcus aureus [45],Active
same,Activity,Staphylococcus aureus [46],Active
same,Activity,Staphylococcus aureus [47],Active
same,Activity,Staphylococcus aureus [48],Active
same,Activity,Staphylococcus aureus [49],Active
same,Activity,Staphylococcus aureus [50],Active
same,Activity,Staphylococcus aureus [5],0.3 cm2
same,Activity,Staphylococcus aureus [51],0.16 cm2
same,Activity,Staphylococcus aureus [52],0.1 cm2
CO[C@@]1(NC(=O)Cc2cccs2)C(=O)N2C(C(=O)O)=C(COC(N)=O)CS[C@@H]21 [CEFOXITIN],MIC,Staphylococcus aureus [12],> 128 µg/mL
same,MIC,Staphylococcus aureus [13],> 128 µg/mL
same,MIC,Staphylococcus aureus [14],2 µg/mL
same,MIC,Enterococcus [1],> 128 µg/mL
same,Activity,Staphylococcus aureus [2],inactive
same,Activity,Staphylococcus aureus [3],inactive
same,Activity,Staphylococcus aureus [53],0.28 cm2
CCc1ccc(CCOc2ccc(CC3SC(=O)NC3=O)cc2)nc1 (centres undefined) [PIOGLITAZONE],inhibition at 50 µM,Staphylococcus aureus [54],54%
